According to patent publication US7932270B2 (Cytokinetics, Inc., priority 2006, dated 2011):

Biological target: T1, chicken gizzard smooth muscle myosin subfragment-1 chemically crosslinked to cardiac or skeletal actin (Gallus gallus, UniProt P10587)
T1 construct: chicken gizzard smooth muscle myosin subfragment-1; from tissue; host or cells: chicken gizzard
Experiment: Smooth muscle myosin ATPase dose response assay (pyruvate kinase/horseradish peroxidase/pyruvate oxidase-coupled, amplex red fluorescence)
Assay type: biochemical
Conditions: read-out: IC50 Arithmetic Mean
Summary of the method: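 Readout is amplex red signal from coupled ATPase of actin-crosslinked gizzard myosin S1 (0.15 mM ATP, 12 mM K-PIPES, pH 7.00). IC50 is the half-maximal activity point of a four-parameter Hill fit.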

T1 sequence (P02607 2-151): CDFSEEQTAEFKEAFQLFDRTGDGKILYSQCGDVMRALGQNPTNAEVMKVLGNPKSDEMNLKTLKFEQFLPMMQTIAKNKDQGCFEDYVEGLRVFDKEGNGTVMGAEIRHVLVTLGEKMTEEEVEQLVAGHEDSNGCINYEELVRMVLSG
T1 sequence (P10587 84-789): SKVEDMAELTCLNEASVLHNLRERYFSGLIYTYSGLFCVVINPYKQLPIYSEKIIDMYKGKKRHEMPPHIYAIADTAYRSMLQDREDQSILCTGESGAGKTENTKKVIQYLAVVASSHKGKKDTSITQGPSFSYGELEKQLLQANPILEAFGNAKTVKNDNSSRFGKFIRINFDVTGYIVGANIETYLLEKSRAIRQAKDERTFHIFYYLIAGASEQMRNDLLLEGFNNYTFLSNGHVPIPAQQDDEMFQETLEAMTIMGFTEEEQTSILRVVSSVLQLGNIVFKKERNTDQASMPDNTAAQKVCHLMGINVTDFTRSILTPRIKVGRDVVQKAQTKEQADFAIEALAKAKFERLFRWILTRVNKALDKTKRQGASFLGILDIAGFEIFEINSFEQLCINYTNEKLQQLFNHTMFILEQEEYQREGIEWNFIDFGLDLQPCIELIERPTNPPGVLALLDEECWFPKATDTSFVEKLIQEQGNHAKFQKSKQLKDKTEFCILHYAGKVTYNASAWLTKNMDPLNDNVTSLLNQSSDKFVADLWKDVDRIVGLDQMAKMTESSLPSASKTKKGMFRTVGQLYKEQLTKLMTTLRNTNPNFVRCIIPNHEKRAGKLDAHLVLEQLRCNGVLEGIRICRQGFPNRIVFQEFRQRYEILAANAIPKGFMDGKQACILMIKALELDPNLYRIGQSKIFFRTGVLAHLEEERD

SMILES	IC50 [nM]
O=C(NCc1cccnc1)c1ccc(-c2ccccc2)nc1NCCc1cccc(F)c1 [(2-{[2-(3-fluorophenyl)ethyl]amino}-6-phenyl(3-pyridyl))-N-(3-pyridylmethyl)carboxamide]	63
Cn1cc(-c2nc(NCCc3cccc(F)c3)c(C(=O)NC[C@H]3CCCN3C(=O)CCCNC(=O)OC(C)(C)C)cc2Cl)cn1 [N-[((2R)-1-{4-[(tert-butoxy)carbonylamino]butanoyl}pyrrolidin-2-yl)methyl](5-chloro-2-{[2-(3-fluorophenyl)ethyl]amino}-6-(1-methylpyrazol-4-yl)(3-pyridyl))carboxamide]	683
Cc1cc(C(=O)NC[C@H]2CCC(=O)N2CCCN)c(NCCc2cccc(F)c2)nc1-c1ccccc1C#N [N-{[(2R)-1-(3-aminopropyl)-5-oxopyrrolidin-2-yl]methyl}(6-(2-cyanophenyl)-2-{[2-(3-fluorophenyl)ethyl]amino}-5-methyl(3-pyridyl))carboxamide]	1230
N#Cc1ccccc1-c1ccc(C(=O)NCc2ccc(CN)cn2)c(NCCc2cccc(F)c2)n1 [N-{[5-(aminomethyl)(2-pyridyl)]methyl}(6-(2-cyanophenyl)-2-{[2-(3-fluorophenyl)ethyl]amino}(3-pyridyl))carboxamide]	515
N#Cc1ccccc1-c1ccc(C(=O)NC[C@H]2CCN2C(=O)[C@@H](N)CO)c(NCCc2cccc(F)c2)n1 [N-{[(2R)-1-((2S)-2-amino-3-hydroxypropanoyl)azetidin-2-yl]methyl}(6-(2-cyanophenyl)-2-{[2-(3-fluorophenyl)ethyl]amino}(3-pyridyl))carboxamide]	88
CNC(=O)CNC(=O)c1ccc(-c2ccc(CO)s2)nc1NCCc1cccc(F)c1 [2-[(2-{[2-(3-fluorophenyl)ethyl]amino}-6-[5-(hydroxymethyl)(2-thienyl)](3-pyridyl))carbonylamino]-N-methylacetamide]	254
CC(C)(CNC(=O)c1ccc(-c2ccccc2C#N)nc1NCCc1cccc(F)c1)NC(=O)CCCN	277
Cc1ccc(-c2ccc(C(=O)NCc3cccnc3)c(NCCc3ccccn3)n2)cc1C [{6-(3,4-dimethylphenyl)-2-[(2-(2-pyridyl)ethyl)amino](3-pyridyl)}-N-(3-pyridylmethyl)carboxamide]	3380
Cc1cc(C(=O)NC[C@H]2CCCN2C(=O)CCCNC(=O)OC(C)(C)C)c(NCCc2cccc(F)c2)nc1-c1cnn(C)c1 [N-[((2R)-1-{4-[(tert-butoxy)carbonylamino]butanoyl}pyrrolidin-2-yl)methyl](2-{[2-(3-fluorophenyl)ethyl]amino}-5-methyl-6-(1-methylpyrazol-4-yl)(3-pyridyl))carboxamide]	2260
Cn1cc(-c2nc(NCCc3cccc(F)c3)c(C(=O)NC[C@H]3CCN3C(=O)CCCNC(=O)OC(C)(C)C)cc2F)cn1 [N-[((2R)-1-{4-[(tert-butoxy)carbonylamino]butanoyl}azetidin-2-yl)methyl](5-fluoro-2-{[2-(3-fluorophenyl)ethyl]amino}-6-(1-methylpyrazol-4-yl)(3-pyridyl))carboxamide]	122
NCCCN1CCC(CNC(=O)c2ccc(-c3cn[nH]c3)nc2NCCc2cccc(F)c2)C1=O (stereo not shown) [N-{[1-(3-aminopropyl)-2-oxopyrrolidin-3-yl]methyl}(2-{[2-(3-fluorophenyl)ethyl]amino}-6-pyrazol-4-yl(3-pyridyl))carboxamide]	3130
N#Cc1ccccc1-c1ccc(C(=O)NCC(O)CN)c(NCCc2cccc(F)c2)n1 (stereo not shown) [N-(3-amino-2-hydroxypropyl)(6-(2-cyanophenyl)-2-{[2-(3-fluorophenyl)ethyl]amino}(3-pyridyl))carboxamide]	4810
N#Cc1ccccc1-c1ccc(C(=O)NCC2CCNCC2)c(NCCc2cccc(F)c2)n1 [(6-(2-cyanophenyl)-2-{[2-(3-fluorophenyl)ethyl]amino}(3-pyridyl))-N-(4-piperidylmethyl)carboxamide]	336
Cn1cc(-c2ccc(C(=O)NCC3CCN(CCCN)C3=O)c(NCCc3cccc(F)c3)n2)cn1 (stereo not shown) [N-{[1-(3-aminopropyl)-2-oxopyrrolidin-3-yl]methyl}(2-{[2-(3-fluorophenyl)ethyl]amino}-6-(1-methylpyrazol-4-yl)(3-pyridyl))carboxamide]	5500
O=C(NC[C@H]1CCN1)c1cc(F)c(-c2cn[nH]c2)nc1NCCc1cccc(F)c1 [N-[((2R)azetidin-2-yl)methyl](5-fluoro-2-{[2-(3-fluorophenyl)ethyl]amino}-6-pyrazol-4-yl(3-pyridyl))carboxamide]	466
N#Cc1ccccc1-c1ccc(C(=O)NCc2cccnc2)c(NCCc2cccc(F)c2)n1 [(6-(2-cyanophenyl)-2-{[2-(3-fluorophenyl)ethyl]amino}(3-pyridyl))-N-(3-pyridylmethyl)carboxamide]	24
Cn1cc(-c2nc(NCCc3cccc(F)c3)c(C(=O)NC[C@H]3CCCN3C(=O)[C@H](CO)NC(=O)OC(C)(C)C)cc2F)cn1 [N-[2-((2R)-2-{[(5-fluoro-2-{[2-(3-fluorophenyl)ethyl]amino}-6-(1-methylpyrazol-4-yl)(3-pyridyl))carbonylamino]methyl}pyrrolidinyl)(1S)-1-(hydroxymethyl)-2-oxoethyl](tert-butoxy)carboxamide]	1200
C[C@H](CNC(=O)c1ccc(-c2ccccc2C#N)nc1NCCc1cccc(F)c1)N(C)C(=O)CCCNC(=O)OC(C)(C)C	3680
O=C(NCc1cccnc1)c1ccc(-c2cccc(C(F)(F)F)c2)nc1NCCc1ccccn1 [{2-[(2-(2-pyridyl)ethyl)amino]-6-[3-(trifluoromethyl)phenyl](3-pyridyl)}-N-(3-pyridylmethyl)carboxamide]	5930
N#Cc1ccccc1-c1ccc(C(=O)N[C@H](CCCNC(=O)OCc2ccccc2)C(N)=O)c(NCCc2cccc(F)c2)n1 [N-{(4R)-4-carbamoyl-4-[(6-(2-cyanophenyl)-2-{[2-(3-fluorophenyl)ethyl]amino}(3-pyridyl))carbonylamino]butyl}(phenylmethoxy)carboxamide]	19600
O=C(NCc1cccnc1)c1ccc(-c2ccccc2)nc1NCCN1CCCCC1=O [(2-{[2-(2-oxopiperidyl)ethyl]amino}-6-phenyl(3-pyridyl))-N-(3-pyridylmethyl)carboxamide]	22100
NCc1ncccc1CNC(=O)c1cc(F)c(-c2cn[nH]c2)nc1NCCc1cccc(F)c1 [N-{[2-(aminomethyl)(3-pyridyl)]methyl}(5-fluoro-2-{[2-(3-fluorophenyl)ethyl]amino}-6-pyrazol-4-yl(3-pyridyl))carboxamide]	12
CC(C)C[C@@H](N)CNC(=O)c1ccc(-c2ccccc2C#N)nc1NCCc1cccc(F)c1 [N-((2R)-2-amino-4-methylpentyl)(6-(2-cyanophenyl)-2-{[2-(3-fluorophenyl)ethyl]amino}(3-pyridyl))carboxamide]	1240
O=C(NCc1cccnc1)c1ccc(-c2ccccc2)nc1NCC1CCCO1 (stereo not shown) [{2-[(oxolan-2-ylmethyl)amino]-6-phenyl(3-pyridyl)}-N-(3-pyridylmethyl)carboxamide]	4830
CC(C)(C)OC(=O)N1CCC[C@@H]1CNC(=O)c1ccc(-c2cn[nH]c2)nc1NCCc1cccc(F)c1 [tert-butyl (2R)-2-{[(2-{[2-(3-fluorophenyl)ethyl]amino}-6-pyrazol-4-yl(3-pyridyl))carbonylamino]methyl}pyrrolidinecarboxylate]	3170
